US10342796B2, “Acrylanilide derivative, preparation method, and applications thereof in pharmacy” (Ancureall Pharmaceutical (Shanghai) Co., Ltd., priority 2015, dated 2019)

Tests used:
Assay in all cases: Growth inhibition GI50 in vitro (CCK8/MTT, 72 h)
Assay type in all cases: cell-based, human
SK-BR-3 (Her2 amp) = details: Homo sapiens, SK-BR-3; HER2 positive cell line; range of GI50; read-out: GI50 SK-BR-3
Procedure: Human lung adenocarcinoma cell line Calu-3 (ATCC) was cultured with 1×MEM complete medium (10% FBS, 1% double-antibiotics, 1% NEAA (Gibco), 2 mM glutamine and 1 mM of sodium pyruvate). Human breast cancer cell line SK-BR-3 was cultured with McCOY'S5A complete medium (10% FBS). Human colon cancer cell line SNU1040 (HER2 V777M positive) (ATCC) and human bronchoalveolar adenocarcinoma cell line NCI-H1781 (expressing HER2 exon 20 G776VC mutation) (ATCC) were cultured with 1×RPMI1640 complete medium (10% FBS), respectively.
The suspension cells were collected by centrifugation. The supernatant was discard and the cell pellet was resuspended and counted. Different cell concentrations (5˜10×10^4 cells/mL) were prepared according to the growth cycle of each cell line and then seeded on a 96-well plate (Corning), 100 μL/well. The cells were incubated over night at 37° C., 5% CO2. The compounds were added to the cells on the second day with 2 wells in parallel. The final concentration of organic solvent shall not exceed 1%. The cells were continually incubated for 72 h, and then subjected to MTT assay.
The present compounds and the reference compounds were dissolved with DMSO (Sigma), respectively. […] The storage concentration of compounds was 10 mM and kept at −20° C. They were diluted by 2 times or 10 times with serial dilution before using.
Dojindo CCK8 reagent kit was used as MTT assay. […] FC meter was used as microplate reader.
Adherent cell culture medium was discard and immediately replaced with fresh prepared medium which contains 10% CCK8 reagent (100 μL/well). For the suspension cells, CCK8 was directly added to 10% of the final concentration. The cells were continually incubated for 1˜4 h. When the color of control wells turned to dark yellow, the absorption value was measured at OD450 nm. The cell growth rate was calculated according to the following formula: cell growth rate (%)=100*(T−T0)/(C−T0), T=optical density of drug treatment cell well—optical density of blank control well; T0=optical density of cell well before drug treatment—optical density of blank control well; C=optical density of cell well of solvent control group—optical density of blank control well. […] The experiment was independently repeated 1˜3 times, and subject to biological statistical analysis.

AU565 (Her2 amp) = details: Homo sapiens, AU565; HER2 positive cell line; range of GI50; read-out: GI50 AU-565
A549 (EGFR WT) = details: Homo sapiens, A549; EGFR wild type cell line; range of GI50; read-out: GI50 A549
[1] = test system: A431 (EGFR WT, amplification and high expression); details: Homo sapiens, A-431; EGFR wild type cell line; range of GI50; read-out: GI50 A431
[2] = test system: H460 (EGFR wt, Kras G61H); details: Homo sapiens, NCI-H460; EGFR wild type cell line; range of GI50; read-out: GI50 H460
[3] = test system: H1299 (EGFR wt, Nras Q61K); details: Homo sapiens, NCI-H1299; EGFR wild type cell line; range of GI50; read-out: GI50 H1299
N87 (HER2 Amp) = details: Homo sapiens; HER2 positive cell line; range of GI50; read-out: GI50 N87
HCC827 (EGFR dE746-A750) = details: Homo sapiens, HCC827; EGFR mutant cell line; range of GI50; read-out: GI50 HCC827
[4] = test system: PC-9ER (EGFR delE746-A750/T790M); details: Homo sapiens, PC-9/ER; EGFR mutant cell line; range of GI50; read-out: GI50 PC9ER
H1975 (EGFR L858R/T790M) = details: Homo sapiens, NCI-H1975; EGFR mutant cell line; range of GI50; read-out: GI50 H1975
PC-9 (EGFR dE746-A750) = details: Homo sapiens; EGFR mutant cell line; range of GI50; read-out: GI50 PC-9

Row | Compound | GI50 (SK-BR-3 (Her2 amp)) [nM] | GI50 (AU565 (Her2 amp)) [nM] | GI50 (A549 (EGFR WT)) [nM] | GI50 [1] [nM] | GI50 [2] [nM] | GI50 [3] [nM] | GI50 (N87 (HER2 Amp)) [nM] | GI50 (HCC827 (EGFR dE746-A750)) [nM] | GI50 [4] [nM] | GI50 (H1975 (EGFR L858R/T790M)) [nM] | GI50 (PC-9 (EGFR dE746-A750)) [nM]
1 | C=CC(=O)Nc1cc(Nc2nccc(Nc3cc(OC)c(Cl)cc3Cl)n2)c(OC)cc1N(C)CCN(C)C [Compound 16, N-(5-(4-(2,4-dichloro-5-methoxyphenyl-amino)-pyrimidin-2-ylamino)-2-(2-(dimethylamino-ethyl)-methyl-amino)-4-methoxyl-phenyl)-acrylamide] | 100 to 1000 | 100 to 1000 | > 1000 | > 1000 | > 1000 | > 1000 | 100 to 1000 | 10 to 100 | 10 to 100 | 10 to 100 | 10 to 100
2 | C=CC(=O)Nc1cc(Nc2nccc(Nc3ccc(OCc4ccccn4)c(Cl)c3)n2)c(OC)cc1N1CCC(N(C)C)CC1 [Compound 28] | 10 to 100 | 10 to 100 | > 1000 | 100 to 1000 | > 1000 | > 1000 | 10 to 100 | 10 to 100 | 10 to 100 | 10 to 100 | 10 to 100
3 | C=CC(=O)Nc1cc(Nc2nccc(N3CCc4ccccc43)n2)c(OC)cc1N(C)CCN(C)C [Compound 31] | 100 to 1000 | 100 to 1000 | > 1000 | 100 to 1000 | > 1000 | > 1000 | 100 to 1000 | 10 to 100 | < 10 | 10 to 100 | 10 to 100
4 | C=CC(=O)Nc1cc(Nc2nccc(-n3ccc4ccccc43)n2)c(OC)cc1N(C)CCN(C)C [Compound 32] | 100 to 1000 | 10 to 100 | > 1000 | 100 to 1000 | > 1000 | > 1000 | 10 to 100 | 10 to 100 | < 10 | 10 to 100 | 10 to 100
5 | C=CC(=O)Nc1cc(Nc2nccc(-n3cc(C)c4ccccc43)n2)c(OC)cc1N(C)CCN(C)C [Compound 57, N-(5-(4-(3-methyl-1H-indol-1-yl)-pyrimidin-2-ylamino)-2-(2-(dimethylamino-ethyl)-methyl-amino)-4-methoxyl-phenyl)-acrylamide] | 100 to 1000 | 100 to 1000 | > 1000 | 100 to 1000 | > 1000 | > 1000 | 100 to 1000 | 10 to 100 | 10 to 100 | 10 to 100 | 100 to 1000
6 | C=CC(=O)Nc1cc(Nc2nccc(-n3ccc4ccc(OC)cc43)n2)c(OC)cc1N(C)CCN(C)C [Compound 58] | 100 to 1000 | 100 to 1000 | > 1000 | 100 to 1000 | > 1000 | > 1000 | 100 to 1000 | 10 to 100 | 10 to 100 | 10 to 100 | 10 to 100
7 | C=CC(=O)Nc1cc(Nc2nccc(-n3ccc4ccc(C)cc43)n2)c(OC)cc1N(C)CCN(C)C [Compound 59] | 100 to 1000 | 100 to 1000 | > 1000 | 100 to 1000 | > 1000 | > 1000 | 100 to 1000 | 10 to 100 | 10 to 100 | 10 to 100 | 10 to 100
8 | C=CC(=O)Nc1cc(Nc2nccc(-n3ccc4ccc(C#N)cc43)n2)c(OC)cc1N(C)CCN(C)C [Compound 60, N-{5-[4-(6-cyano-indol-1-yl)-pyrimidin-2-ylamino]-2-[(2-dimethylamino-ethyl)-methyl-amino]-4-methoxyl-phenyl}-acrylamidel] | 100 to 1000 | 100 to 1000 | > 1000 | > 1000 | > 1000 | > 1000 | 100 to 1000 | 100 to 1000 | 100 to 1000 | 100 to 1000 | 100 to 1000
9 | C=CC(=O)Nc1cc(Nc2nccc(-n3ccc4ccc(Cl)cc43)n2)c(OC)cc1N(C)CCN(C)C [Compound 61, N-(5-(4-(6-chloro-1H-indol-1-yl)-pyrimidin-2-ylamino)-2-((2-(dimethylamino)ethyl)-methyl-amino)-4-methoxyl-phenyl)-acrylamide] | 100 to 1000 | 100 to 1000 | > 1000 | 100 to 1000 | > 1000 | > 1000 | 100 to 1000 | 10 to 100 | < 10 | < 10 | 10 to 100
10 | C=CC(=O)Nc1cc(Nc2nccc(-n3ccc4ccc(Br)cc43)n2)c(OC)cc1N(C)CCN(C)C [Compound 62, N-(5-(4-(6-bromo-1H-indol-1-yl)-pyrimidin-2-ylamino)-2-((2-(dimethylamino)ethyl)-methyl-amino)-4-methoxyl-phenyl)-acrylamide] | 10 to 100 | 10 to 100 | > 1000 | 100 to 1000 | > 1000 | > 1000 | 10 to 100 | < 10 | 10 to 100 | 10 to 100 | 10 to 100
11 | C=CC(=O)Nc1cc(Nc2nccc(-n3ccc4cc(C)ccc43)n2)c(OC)cc1N(C)CCN(C)C [Compound 77, N-(5-(4-(5-methyl-1H-indol-1-yl)-pyrimidin-2-ylamino)-2-((2-dimethylamino-ethyl)-methyl-amino)-4-methoxyl-phenyl)-acrylamide] | 100 to 1000 | 100 to 1000 | > 1000 | 100 to 1000 | > 1000 | > 1000 | 100 to 1000 | 100 to 1000 | 10 to 100 | 10 to 100 | 100 to 1000
12 | C=CC(=O)Nc1cc(Nc2nccc(-n3ccc4cc(OC)ccc43)n2)c(OC)cc1N(C)CCN(C)C [Compound 78, N-(5-(4-(5-methoxyl-1H-indol-1-yl)-pyrimidin-2-ylamino)-2-((2-dimethylamino-ethyl)-methyl-amino)-4-methoxyl-phenyl)-acrylamide] | 10 to 100 | 10 to 100 | > 1000 | 100 to 1000 | > 1000 | > 1000 | < 10 | 10 to 100 | 10 to 100 | < 10 | 10 to 100
13 | C=CC(=O)Nc1cc(Nc2nccc(-n3ccc4cc(F)ccc43)n2)c(OC)cc1N(C)CCN(C)C [Compound 83] | 100 to 1000 | 100 to 1000 | > 1000 | 100 to 1000 | > 1000 | > 1000 | 10 to 100 | < 10 | 10 to 100 | < 10 | 10 to 100
14 | C=CC(=O)Nc1cc(Nc2nccc(-n3ccc4c(C)cccc43)n2)c(OC)cc1N(C)CCN(C)C [Compound 98, N-(5-(4-(4-methyl-1H-indol-1-yl)-pyrimidin-2-ylamino)-2-(2-(dimethylamino-ethyl)-methyl-amino)-4-methoxyl-phenyl)-acrylamide] | 10 to 100 | 100 to 1000 | > 1000 | 100 to 1000 | > 1000 | > 1000 | 10 to 100 | 10 to 100 | 10 to 100 | 10 to 100 | 10 to 100
